Measured values published in patent US20250114324A1, “ANTIMICROBIAL MATERIALS AND NANOPARTICLES AND METHODS OF USE THEREOF” (Arizona Board of Regents on behalf of Arizona State …, priority 2022, published 2025).
Like-named read-outs stand apart in the source and are kept apart here.

Columns and labels:
[1] = In vitro release profile (dialysis method); type: physicochemical; settings: for release profile: 37° C. (FIG. 17C)
Procedure: (§1) The chemical stability is measured by detecting remaining phytochemicals' concentrations at different time points using the HPLC system. The release profile is measured using a dialysis method. Briefly, native phytochemicals and NCs are each put into dialysis bags with Molecular Weight Cut Off (MWCO) 6,000-8,000. The dialysis bags are dipped into the dissolution medium composed of 1×PBS and methanol (9:1, v:v). The dissolution medium is stirred at 200 rpm at 4° C. and 22° C. The dissolution medium is changed completely every 2 hours for the first 24 hours, and every 6 hours for the rest 30 days. The amounts of phytochemicals in the release medium are measured using the above HPLC methods.
Using R-NPs as an example, the NPs were stable at both 4° C. and 22° C. (FIG. 17A). Nanoencapsulation increased R's stability (FIG. 17B). Similarly, Q and RQ were also stable at 4° C. and 22° C. after encapsulation. A dialysis method was used to measure R and Q release profiles from NPs at 37° C. […] The release profiles of NPs were even slower at 4° C. and 22° C.

[2] = Pharmacokinetics and bioavailability of Q after oral administration to rats; settings: male, Sprague-Dawley, rat, 50 mg/kg
Procedure: Male Sprague-Dawley rats (n=3 per group) weighing 200-250 g were purchased pre-cannulated from Harlan Laboratories (Indianapolis, IN). The rounded tips catheters were surgically implanted into the jugular vein of the rats with the benefits of multiple blood draw. […] Blood was collected via the catheters at hour 0, 1, 2, 3, 4, 6, 8, 10, 14, 24, 36, and 48 into heparinized tubes. Blood Q concentrations were measured using a HPLC system (FIG. 5). Pharmacokinetic parameters were determined on each individual set of data by using a non-compartmental model (Song I, Eur J Clin Pharmacol. 2016; 72:665-670). […] The relative bioavailability Fr at infinity was calculated as Fr=AUCQ-NLC, […]/AUCQ, 0→∞. The half-life (t1/2)=0.693/k. The mean residence time (MRT)=1/k.
Male Sprague-Dawley rats (n=3 per group) weighing 200-250 g and the rounded tips catheters were surgically implanted into the jugular vein of the rats with the benefits of multiple blood draw. […] Blood was collected via the catheters at hour 0, 1, 2, 3, 4, 6, 8, 10, 14, 24, 36, and 48 into heparinized tubes. Blood Q concentrations were measured using an HPLC system (FIG. 21). Pharmacokinetic parameters were determined on each individual set of data by using a non-compartmental model. […] The area under the plasma concentration time curve from time zero to infinity (AUC0→∞) was calculated as AUC0→24 h+Ct/Ke, where Ct was the Q concentration observed at the […] time, and Ke is the apparent elimination rate constant obtained from the terminal slope of the individual plasma concentration-time curves after logarithmic transformation of the plasma concentration values and application of linear regression. The relative bioavailability Fr at infinity was calculated as Fr=AUCQ-NP, 0→∞/AUCQ, 0→∞. The half-life (t1/2)=0.693/k. The mean residence time (MRT)=1/k.

E coli (ATCC 43895) = test: Antibacterial activity (absorbance at 595 nm), Example 3; type: cell-based; settings: 300 μg/mL R or Q; free RQ 240 μg/mL (FIG. 19B)
Excerpt: (§2) The antibacterial activity of all NPs and their controls against Salmonella enterica subsp. enterica (S. enterica ATCC 13076), Listeria monocytogenes (L. monocytogenes ATCC 15313), E coli (ATCC 43895) and Staphylococcus aureus subsp. aureus (S. aureus ATCC 25923) were investigated.

[3] = system: L. monocytogenes ATCC 15313; test: as above; type: cell-based, Listeria monocytogenes; settings: 300 μg/mL R or Q; free RQ 240 μg/mL (FIG. 19C)
Excerpt: as §2

[4] = room temperature; cited from earlier work
E. coli (48953) = test: Anti-bacterial assay (OD 600 nm, CFU), Example 2; type: cell-based; settings: 100 μg/mL, 24 h of incubation
Procedure: (§3) The concentrations of R and Q in the NPs were characterized by HPLC. Three parallel experiments were performed for each sample, the absorbance of bacteria solution treated with different samples was measured by a microplate reader at a wavelength of 600 nm. S. enteritidis (13076), L. monocytogenes (15313), E. coli (48953) and S. aureus (25923) were used in this study and treated with R-NPs, Q-NPs, RQ-NPs, and CS-coated R-NPs, Q-NPs, and RQ-NPs, respectively. Different concentrations of R-NPs and Q-NPs were investigated. Initially, 50 μg/mL R and R-NPs were used. […] S. enteritidis, L. monocytogenes, E. coli and S. aureus were cultured in broth media under constant shaking at 100 rpm at 37° C. to reach the mid exponential growth phase. The number of bacteria was determined by counting the CFU formed on the agar plate. Bacterial suspensions were diluted to approximately 1×10^4-5 CFU/mL in broth media. The NPs solution (20 μL) was mixed with 180 μL of bacterial suspension in a 96-well plate, and the experiments were performed in triplicates. The plates were incubated at 37° C. under constant shaking at 100 rpm overnight, and the optical density (OD) at 600 nm was measured on a plate reader.

L. monocytogenes (15313) = test: Anti-bacterial assay (OD 600 nm, CFU), Example 2; type: cell-based; settings: 100 μg/mL, 24 h of incubation
Procedure: as §3

S. aureus (25923) = test: Anti-bacterial assay (OD 600 nm, CFU), Example 2; type: cell-based; settings: 100 μg/mL, 24 h of incubation
Procedure: as §3

S. enteritidis (13076) = test: Anti-bacterial assay (OD 600 nm, CFU), Example 2; type: cell-based; settings: 100 μg/mL, 24 h of incubation
Procedure: as §3

[5] = system: S. enteritidis (13076), L. monocytogenes (15313), E. coli (48953) and S. aureus (25923); test: Anti-bacterial assay, Example 2, result stated for the four strains together; type: cell-based; parameters: anti-bacterial effects: dose or concentration left out as unconfirmed
Procedure: as §3, with “The plates were incubated at 37° C. under constant shaking at 100 rpm overnight, and the optical density (OD) at 600 nm was measured on a plate reader.” left out

[6] = cited from earlier work
[7] = Stability of nano-encapsulated and native EGCG in 1×PBS at pH 7.4; type: physicochemical; settings: neutral pH (7.4)
Procedure: Three independent experiments were conducted at each time point.
The degradation rate of EGCG in NLCs and CSNLCs were much slower.
as §1

[8] = after drinking 2 cups of green tea; cited from earlier work
[9] = after drinking tea containing catechins at 10 mg/kg body weight; cited from earlier work
[10] = pH>7; cited from earlier work

What does the source list for O=c1c(O)c(-c2ccc(O)c(O)c2)oc2cc(O)cc(O)c12 [Q]?
release profile ([1]; dialysis method): burst release; release pattern ([1]; dialysis method, release medium (FIG. 4B)): burst release pattern; half-life ([2]; in vivo): 16.7 ± 10.5 h; Cmax ([2]; po): 964 ± 536 ng/mL; Ke ([2]; po): 0.07 ± 0.06 h⁻¹; MRT ([2]; po): 12.1 ± 15.1 h; Tmax ([2]; po): 2 h; AUC ([2]; po, AUCo→24 h): 14600 ± 6270 ng·h/mL; AUC ([2]; po, AUCo→∞): 15300 ± 6090 ng·h/mL; growth inhibition (E coli (ATCC 43895)): inhibited growth; growth inhibition [3]: inhibited growth; dissolution of 20 mg in 10 mL of 1×PBS [4]: not able to be dissolved

What does the source list for Oc1ccc(/C=C/c2cc(O)cc(O)c2)cc1 [R, 3,5,4′-tri-hydroxy-trans-stilbene]?
release behavior ([1]; RES NPs study): burst release; release profile ([1]; dialysis method): burst release; anti-bacterial effects (E. coli (48953)): showed anti-bacterial effects; growth (CFU formation) (E. coli (48953)): significantly decreased the growth; growth (CFU formation) (L. monocytogenes (15313)): still not shown; anti-bacterial effects (S. aureus (25923)): showed anti-bacterial effects; growth (CFU formation) (S. aureus (25923)): significantly decreased the growth; growth (CFU formation) (S. enteritidis (13076)): still not shown; anti-bacterial effects ([5]; 6 h of incubation): significant anti-bacterial effects; anti-bacterial effects of 300 μg/mL compared with 200 μg/mL ([5]; FIG. 9): significant enhanced anti-bacterial effects; growth inhibition (E coli (ATCC 43895)): inhibited growth; growth inhibition [3]: inhibited growth; aqueous solubility [6]: < 100 µg/mL

With O=C(O[C@@H]1Cc2c(O)cc(O)cc2O[C@@H]1c1cc(O)c(O)c(O)c1)c1cc(O)c(O)c(O)c1 [EGCG, Epigallocatechin Gallate] as the compound, how does the “time to complete degradation” value ([7]; 4° C.) read?
The value was 24 h.

What about the “time to complete degradation” value ([7]; 25° C.) of the same compound?
The value was 6 h.

And the “time to complete degradation” value ([7]; 37° C.)?
Its value is 3 h.

What about the “peak plasma EGCG concentration” value [8] of the same compound?
The value was 0.15 UM.

What about the absolute oral bioavailability [9] of the same compound?
Its absolute oral bioavailability is “about 0.1%”.

What does the source list for COc1cc(/C=C/C(=O)CC(=O)/C=C/c2ccc(O)c(OC)c2)ccc1O [curcumin, Curcumin]?
half-life [10]: < 0.167 h; solubility in water [6]: less than 0.1 mg/mL
